Data on 34 compounds can be found in US5861476A, “Peptides and compounds that bind to the IL-1 receptor” (Affymax Technologies N.V., priority 1995, dated 1999).

Read-outs that look alike come from different tables or passages of the source. Where a SMILES comes first, the peptide text is derived from it. Where no end group is shown, it is not given here. [ ]: non-standard residue; d: D form. Bpa = N[C@@H](Cc1ccc(C(=O)c2ccccc2)cc1)C(=O)O; Aze = O=C(O)[C@@H]1CCN1

The target in the experiment is T1, IL-1RtI (Homo sapiens, UniProt P14778).
T1 construct: made in house; host or cells: recombinant host cells (one form soluble from baculovirus transformed host cells; another PIG-tailed and cleaved from the cell surface)
T1 sequence (P14778 18-336): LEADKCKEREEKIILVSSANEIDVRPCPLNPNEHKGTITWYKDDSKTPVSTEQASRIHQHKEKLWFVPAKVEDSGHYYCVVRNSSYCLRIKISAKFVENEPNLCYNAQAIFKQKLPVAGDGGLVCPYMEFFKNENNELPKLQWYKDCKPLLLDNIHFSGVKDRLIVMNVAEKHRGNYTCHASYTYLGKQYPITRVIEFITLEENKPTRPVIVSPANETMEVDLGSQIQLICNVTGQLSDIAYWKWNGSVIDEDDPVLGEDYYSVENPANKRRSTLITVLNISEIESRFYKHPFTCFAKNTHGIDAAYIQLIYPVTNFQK
Nature of the experiment: Inhibition of 125I-IL-1α binding to IL-1RtI (Example 3). How it is done:
This example provides the results of experiments conducted to determine an approximate IC50 for certain peptides of the invention. IC50 as used herein refers to the concentration of a compound which will inhibit 50% of the binding between a receptor and its ligand, e.g. IL-1RtI and IL-1. Stock solutions of each peptide were prepared. The appropriate amount of the peptide was dissolved in DMSO, and then nineteen volumes of binding buffer (RPMI 1640, 1% BSA, 20 mM HEPES, pH 7.2-7.3, and 0.1% sodium azide) were added to yield a 1 mM peptide, 5% DMSO stock solution.
One assay utilized a truncated IL-1RtI which had been immobilized on 96-well plates with an appropriate antibody, typically a non-blocking high affinity antibody. In other assays, cells expressing "full-length" IL-1RtI were used with results that yielded IC50 values about 5 to 10 fold lower than those determined using the truncated receptor. The cells were seeded onto Falcon 3072 96-well plates at about 10^5 cells per well, and the plates were incubated overnight at 37° C. in media containing serum. The following morning, the cells were checked to ensure that the cells were confluent and adhered to the bottom of the wells.
According to either assay protocol, the plates were then washed three times with binding buffer, and then 50 μl of binding buffer and 25 μl of a peptide solution (either the stock solution or a dilution thereof; each stock was subjected to five three fold dilutions) were added to each well. Then 25 μl of binding buffer containing ^125 I-IL-1α (final concentration of 90 pM) were added to each well to begin the assay. Each assay was carried out in duplicate. The plates were then incubated for two hours at 4° C. For peptides having particularly high affinities, the assay was run in 24 well plates allowing for higher levels of ligand (possible total volume of 2.5 ml instead of 100 μl in the 96 well plate), thereby minimizing the potential for ligand depletion.
After the two hour incubation, the wells were rinsed three times with ice cold PBS (a semi-automated cell harvesting device was used to conduct the rinse). The receptors or cells were then detached from the plates by adding 100 μl of 0.1N NaOH to each well and incubating the plates at room temperature for 20 minutes. After the 20 minute incubation, about 75 μl of the suspension was counted on a gamma counter, and the IC50 for each peptide was determined using computer assistance and the results of the gamma counting.

Setting [1] is: inhibition of 125I-IL-1α binding to IL-1RtI, soluble peptide unless marked *.

LFEQPYAKALGL [LFEQPYAKALGL]: the half-inhibitory concentration (IC50) under setting [1] was at most 100 µM. In turn, `C[C@H](NC(=O)[C@H](Cc1c[nH]c2ccccc12)NC(=O)[C@H](Cc1ccc(O)cc1)NC(=O)CNC(=O)[C@@H]1CCCN1C(=O)[C@@H](NC(=O)[C@H](Cc1c[nH]c2ccccc12)NC(=O)[C@H](CCC(=O)O)NC(=O)[C@@H](N)Cc1ccccc1)[C@@H](C)O)C(=O)N1CC[C@H]1C(=O)N[C@@H](Cc1ccc(O)cc1)C(N)=O` [FEWTPGYWAJY--NH2] (H-FEWTPGYWA[Aze]Y-NH2) returned an IC50 under setting [1] of over 100 µM. DYVWEQPYALPL [DYVWEQ PYALPL] showed a half-maximal inhibitory concentration (IC50) under setting [1] of at most 100 µM. In the case of `C[C@@H](O)[C@H](NC(=O)[C@H](Cc1c[nH]c2ccccc12)NC(=O)[C@H](CCC(=O)O)NC(=O)[C@@H](N)Cc1ccccc1)C(=O)NCC(=O)NCC(=O)N[C@@H](Cc1ccc(O)cc1)C(=O)N[C@@H](Cc1c[nH]c2ccccc12)C(=O)N[C@@H](CCC(N)=O)C(=O)N1CC[C@H]1C(=O)N[C@@H](Cc1ccc(O)cc1)C(N)=O` [FEWTGGYWQJY--NH2] (H-FEWTGGYWQ[Aze]Y-NH2), under setting [1], the half-maximal inhibitory concentration (IC50) is at most 100 µM. Under setting [1], RPLYWQPYSVQV [RPLYWQPYSVQV] showed an IC50 of at most 100 µM. The same measure, in the same setting: the value for `C[C@@H](O)[C@H](NC(=O)[C@H](Cc1c[nH]c2ccccc12)NC(=O)[C@H](CCC(=O)O)NC(=O)[C@@H](N)Cc1ccccc1)C(=O)N1CCC[C@H]1C(=O)NCC(=O)N[C@@H](Cc1ccc(O)cc1)C(=O)N[C@@H](Cc1ccc(O)cc1)C(=O)N[C@@H](CCC(N)=O)C(=O)N1CC[C@H]1C(=O)N[C@@H](Cc1ccc(C(=O)c2ccccc2)cc1)C(N)=O` [FEWTPGYYQJ--Bpa--NH2] (H-FEWTPGYYQ[Aze][Bpa]-NH2) was at most 100 µM. As for RWEQPYVKDGWS [RWEQPYVKDGWS], the concentration for half-maximal inhibition (IC50) under setting [1] was at most 100 µM. As to QIDNTAWYERFLLQYNA [QIDNTAWYERFLLQYNA], the half-inhibitory concentration (IC50) was under 0.5 µM. In turn, RFDYWQPYSDQT [RFDYWQPYSDQT] yielded a 50% inhibitory concentration (IC50) under setting [1] of at most 100 µM.

`CC(C)[C@@H](NC(=O)[C@@H]1CCCN1C(=O)[C@@H](NC(=O)[C@H](Cc1c[nH]c2ccccc12)NC(=O)[C@H](CCC(=O)O)NC(=O)[C@@H](N)Cc1ccccc1)[C@@H](C)O)C(=O)N[C@@H](Cc1ccc(O)cc1)C(=O)N[C@@H](Cc1c[nH]c2ccccc12)C(=O)N[C@@H](CCC(N)=O)C(=O)N1CC[C@H]1C(=O)N[C@@H](Cc1ccc(O)cc1)C(N)=O` [FEWTPvYWQJY--NH2] (H-FEWTP[dV]YWQ[Aze]Y-NH2) showed an IC50 under setting [1] of at most 0.5 µM. Under setting [1], `C[C@H](NC(=O)[C@H](Cc1ccc(O)cc1)NC(=O)CNC(=O)[C@@H]1CCCN1C(=O)[C@@H](NC(=O)[C@H](Cc1c[nH]c2ccccc12)NC(=O)[C@H](CCC(=O)O)NC(=O)[C@@H](N)Cc1ccccc1)[C@@H](C)O)C(=O)N[C@@H](CCC(N)=O)C(=O)N1CC[C@H]1C(=O)N[C@@H](Cc1ccc(O)cc1)C(N)=O` [FEWTPGYAQJY--NH2] (H-FEWTPGYAQ[Aze]Y-NH2) showed a half-maximal inhibitory concentration (IC50) of at most 100 µM. In turn, `C[C@H](NC(=O)[C@H](CCC(=O)O)NC(=O)[C@@H](N)Cc1ccccc1)C(=O)N[C@H](C(=O)N1CCC[C@H]1C(=O)NCC(=O)N[C@@H](Cc1ccc(O)cc1)C(=O)N[C@@H](Cc1c[nH]c2ccccc12)C(=O)N[C@@H](CCC(N)=O)C(=O)N1CC[C@H]1C(=O)N[C@@H](Cc1ccc(O)cc1)C(N)=O)[C@@H](C)O` [FEATPGYWQJY--NH2] (H-FEATPGYWQ[Aze]Y-NH2) gave an IC50 under setting [1] of at most 100 µM.

In the case of “SVGEDHNFWTSEYWQPYALPL [SVGEDHNFWTSE YWQPYALPL]”, under setting [1], the IC50 is at most 0.5 µM. Still for that read-out and setting: the value for `C[C@H](NC(=O)[C@@H]1CCCN1C(=O)[C@@H](NC(=O)[C@H](Cc1c[nH]c2ccccc12)NC(=O)[C@H](CCC(=O)O)NC(=O)[C@@H](N)Cc1ccccc1)[C@@H](C)O)C(=O)N[C@@H](Cc1ccc(O)cc1)C(=O)N[C@@H](Cc1c[nH]c2ccccc12)C(=O)N[C@@H](CCC(N)=O)C(=O)N1CC[C@H]1C(=O)N[C@@H](Cc1ccc(O)cc1)C(N)=O` [FEWTPAYWQJY--NH2] (H-FEWTPAYWQ[Aze]Y-NH2) was at most 0.5 µM; that for AWVQPYATPLDE [AWVQPYATPLDE] was at most 100 µM.

Under setting [1], `CC(=O)N[C@@H](Cc1ccccc1)C(=O)N[C@@H](CCC(=O)O)C(=O)N[C@@H](Cc1c[nH]c2ccccc12)C(=O)N[C@H](C(=O)N1CCC[C@H]1C(=O)NCC(=O)N[C@@H](Cc1ccc(O)cc1)C(=O)N[C@@H](Cc1ccc(C(=O)c2ccccc2)cc1)C(=O)N[C@@H](CCC(N)=O)C(=O)N1CC[C@H]1C(=O)N[C@@H](Cc1ccc(O)cc1)C(N)=O)[C@@H](C)O` [AcFEWTPGY--Bpa--QJY--NH2] (Ac-FEWTPGY[Bpa]Q[Aze]Y-NH2) gave an IC50 of at most 0.5 µM. Turning to EWYQPYALGWAR [EWYQPYALGWAR], the concentration for half-maximal inhibition (IC50) under setting [1] is at most 100 µM.

For the compound `C[C@@H](O)[C@H](NC(=O)[C@H](Cc1ccc(C(=O)c2ccccc2)cc1)NC(=O)[C@H](CCC(=O)O)NC(=O)[C@@H](N)Cc1ccccc1)C(=O)N1CCC[C@H]1C(=O)NCC(=O)N[C@@H](Cc1ccc(O)cc1)C(=O)N[C@@H](Cc1ccc(O)cc1)C(=O)N[C@@H](CCC(N)=O)C(=O)N1CC[C@H]1C(=O)N[C@@H](Cc1ccc(O)cc1)C(N)=O` [FE--Bpa--TPGYYQJY--NH2] (H-FE[Bpa]TPGYYQ[Aze]Y-NH2), the IC50 under setting [1] is over 100 µM.

Under setting [1], SHLYWQPYSVQ [Peptide 2H2, SHLYWQPYSVQ] registered an IC50 of at most 100 µM. Consider `CC(C)C[C@H](NC(=O)[C@@H]1CCCN1C(=O)[C@H](CC(C)C)NC(=O)[C@H](C)NC(=O)[C@H](Cc1ccc(O)cc1)NC(=O)[C@@H]1CCN1C(=O)[C@H](CCC(N)=O)NC(=O)[C@H](Cc1c[nH]c2ccccc12)NC(=O)[C@H](Cc1ccc(O)cc1)NC(=O)[C@H](Cc1ccc(O)cc1)NC(=O)[C@H](C)NC(=O)[C@H](CC(N)=O)NC(=O)[C@H](CO)NC(=O)[C@H](CCC(=O)O)NC(=O)[C@H](CCC(=O)O)NC(=O)[C@H](Cc1c[nH]c2ccccc12)NC(=O)[C@@H](NC(=O)[C@@H](N)Cc1ccccc1)[C@@H](C)O)C(=O)O` [FTWEESNAYYWQJYALPL] (H-FTWEESNAYYWQ[Aze]YALPL-OH), for which the concentration for half-maximal inhibition (IC50) is under 0.5 µM. As to `C[C@@H](O)[C@H](NC(=O)[C@H](Cc1c[nH]c2ccccc12)NC(=O)[C@H](CCC(=O)O)NC(=O)[C@@H](N)Cc1ccccc1)C(=O)N1CCC[C@H]1C(=O)N[C@H](CC(N)=O)C(=O)N[C@@H](Cc1ccc(O)cc1)C(=O)N[C@@H](Cc1ccc(O)cc1)C(=O)N[C@@H](CCC(N)=O)C(=O)N1CC[C@H]1C(=O)N[C@@H](Cc1ccc(O)cc1)C(N)=O` [FEWTPnYYQJY-NH2] (H-FEWTP[dN]YYQ[Aze]Y-NH2), the 50% inhibitory concentration (IC50) is under 0.5 µM.

As for SRVWFQPYSLQS [3H1, 6, 12, SRVWFQPYSLQS], under setting [1], the half-inhibitory concentration (IC50) was at most 100 µM. Same read-out and setting: the value for QRIWWQPYALPL [QRIWWQ PYALPL] was at most 100 µM; that for `CC(=O)N[C@@H](Cc1ccccc1)C(=O)N[C@@H](CCC(=O)O)C(=O)N[C@@H](Cc1ccc(C(=O)c2ccccc2)cc1)C(=O)N[C@H](C(=O)N1CCC[C@H]1C(=O)NCC(=O)N[C@@H](Cc1ccc(O)cc1)C(=O)N[C@@H](Cc1ccc(O)cc1)C(=O)N[C@@H](CCC(N)=O)C(=O)N1CC[C@H]1C(=O)N[C@@H](Cc1ccc(O)cc1)C(N)=O)[C@@H](C)O` [AcFE--Bpa--TPGYYQJY--NH2] (Ac-FE[Bpa]TPGYYQ[Aze]Y-NH2) was at most 100 µM.

Regarding YWYQPYALPL [YWYQPYALPL], under setting [1], the half-inhibitory concentration (IC50) was at most 100 µM. On the same count and under the same terms, the value for SRIWCQPYALPL [SRIWCQ PYALPL] was at most 100 µM; that for DNTAWYESFLA [DNTAWYESFLA] was at most 100 µM. Same read-out and setting: the figure for TLVYWQPYSLQT [Peptide H3, TLVYWQPYSLQT] is at most 100 µM. On the same count and under the same terms, the value for ASEWWQPYALPL [ASEWWQ PYALPL] was at most 100 µM.

EIMFWQPYALPL [EIMFWQ PYALPL] registered a 50% inhibitory concentration (IC50) under setting [1] of at most 100 µM.

HWGHVYWQPYSVQDDLG [HWGH VYWQPYSVQ DDLG] came in with a half-maximal inhibitory concentration (IC50) under setting [1] of at most 100 µM. The same measure, in the same setting: the value for `C[C@@H](O)[C@H](NC(=O)[C@H](Cc1c[nH]c2ccccc12)NC(=O)[C@H](CCC(=O)O)NC(=O)[C@@H](N)Cc1ccc(C(=O)c2ccccc2)cc1)C(=O)N1CCC[C@H]1C(=O)NCC(=O)N[C@@H](Cc1ccc(O)cc1)C(=O)N[C@@H](Cc1ccc(O)cc1)C(=O)N[C@@H](CCC(N)=O)C(=O)N1CC[C@H]1C(=O)N[C@@H](Cc1ccc(O)cc1)C(N)=O` [Bpa--EWTPGYYQJY--NH2] (H-[Bpa]EWTPGYYQ[Aze]Y-NH2) was at most 0.5 µM; that for SYDWEQPYALPL [SYDWEQ PYALPL] was at most 100 µM; that for IWYQPYAMPL [IWYQPYAMPL] was at most 100 µM.
